From patent publication US20260285875A1, “INHIBITORS OF PARG” (858 Therapeutics, Inc., priority 2023, published 2026) come the findings set out here.

In the assay the target is T1, cellular PARG (Homo sapiens, UniProt Q86W56).
T1 construct: endogenous in cells; host or cells: HeLa
Nature of the assay: Nuclear PAR accumulation assay (immunofluorescence high-content imaging, MMS-treated HeLa cells). The format is cell-based. The note with it: 1 hour compound then MMS 50 μg/mL for an additional hour. The procedure, abridged: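 HeLa cells pretreated with compound for 1 h at 37° C, then given 50 μg/mL MMS for another hour. After methanol fixation, PAR was immunostained with DAPI nuclear counterstain; per-nucleus intensity and percent PAR-positive cells were imaged at 20× (≥1,000 cells/well). IC50 from four-parameter logistic fit.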

A value given as a limit tells only on which side of the number the result lay.

T1 sequence (Q86W56 whole entry): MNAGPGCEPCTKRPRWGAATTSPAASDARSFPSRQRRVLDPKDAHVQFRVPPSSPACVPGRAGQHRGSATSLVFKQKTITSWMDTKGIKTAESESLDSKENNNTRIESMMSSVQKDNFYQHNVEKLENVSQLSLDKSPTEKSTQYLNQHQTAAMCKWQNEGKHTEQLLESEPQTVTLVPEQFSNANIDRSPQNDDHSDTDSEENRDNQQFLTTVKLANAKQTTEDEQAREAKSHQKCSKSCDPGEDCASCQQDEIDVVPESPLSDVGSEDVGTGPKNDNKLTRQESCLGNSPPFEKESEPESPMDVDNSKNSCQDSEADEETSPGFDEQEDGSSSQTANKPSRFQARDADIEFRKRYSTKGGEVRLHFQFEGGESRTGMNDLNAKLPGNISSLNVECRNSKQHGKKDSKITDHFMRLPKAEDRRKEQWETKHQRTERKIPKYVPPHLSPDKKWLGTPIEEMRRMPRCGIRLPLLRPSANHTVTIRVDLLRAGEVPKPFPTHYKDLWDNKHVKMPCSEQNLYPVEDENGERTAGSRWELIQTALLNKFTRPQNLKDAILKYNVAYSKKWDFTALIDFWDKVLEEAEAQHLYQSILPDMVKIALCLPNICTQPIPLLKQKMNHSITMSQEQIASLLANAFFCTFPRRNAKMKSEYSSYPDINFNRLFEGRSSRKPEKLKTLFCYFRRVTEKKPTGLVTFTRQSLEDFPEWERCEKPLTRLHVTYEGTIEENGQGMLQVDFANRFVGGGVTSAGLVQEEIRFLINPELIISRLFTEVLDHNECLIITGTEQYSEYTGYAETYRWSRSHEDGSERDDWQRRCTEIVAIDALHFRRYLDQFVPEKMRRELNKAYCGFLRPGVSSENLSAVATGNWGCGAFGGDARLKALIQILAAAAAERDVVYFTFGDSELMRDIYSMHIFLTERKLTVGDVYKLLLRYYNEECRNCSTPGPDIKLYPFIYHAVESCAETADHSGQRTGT

On to `COc1ccc2ncc(C#C[C@@H]3CN=C4N(C)C(=O)c5cc(S(=O)(=O)NC6(C)CC6)ccc5N43)n2n1` [Example 181, (R)-1-((6-methoxyimidazo[1,2-b]pyridazin-3-yl)ethynyl)-4-methyl-N-(1-methylcyclopropyl)-5-oxo-1,2,4,5-tetrahydroimidazo[1,2-a]quinazoline-7-sulfonamide], for which the IC50 – broadly, the point on the concentration scale where inhibition reaches its midpoint – was < 100 nM. On to `Cc1cnn2c(C#C[C@@H]3CN=C4N(C)C(=O)c5cc(S(=O)(=O)NC6(C)CC6)ccc5N43)cnc2c1` [Example 182, (R)-4-methyl-N-(1-methylcyclopropyl)-1-((7-methylimidazo[1,2-b]pyridazin-3-yl)ethynyl)-5-oxo-1,2,4,5-tetrahydroimidazo[1,2-a]quinazoline-7-sulfonamide], for which the IC50 was < 100 nM. With `Cc1ccc2ncc(C#C[C@@H]3CN=C4N(C)C(=O)c5cc(S(=O)(=O)NC6(C)CC6)ccc5N43)n2n1` [Example 183, (R)-4-methyl-N-(1-methylcyclopropyl)-1-((6-methylimidazo[1,2-b]pyridazin-3-yl)ethynyl)-5-oxo-1,2,4,5-tetrahydroimidazo[1,2-a]quinazoline-7-sulfonamide] the figure was < 100 nM; with `[2H]C([2H])([2H])N1C(=O)c2cc(S(=O)(=O)NC3(C)CC3)ccc2N2C1=NCC2C#Cc1cnc2cccnn12` (stereo not shown) [Example 184, 1-(imidazo[1,2-b]pyridazin-3-ylethynyl)-4-(methyl-d3)-N-(1-methylcyclopropyl)-5-oxo-1,2,4,5-tetrahydroimidazo[1,2-a]quinazoline-7-sulfonamide], < 100 nM.

Turning to `CN1C(=O)c2cc(S(=O)(=O)NC3(C)CC3)ccc2N2C1=NC[C@H]2C#Cc1ccnn1C` [Example 185, (R)-4-methyl-1-((1-methyl-1H-pyrazol-5-yl)ethynyl)-N-(1-methylcyclopropyl)-5-oxo-1,2,4,5-tetrahydroimidazo[1,2-a]quinazoline-7-sulfonamide], the IC50 was < 100 nM. The value for `CCN1C(=O)c2cc(S(=O)(=O)NC3(C)CC3)ccc2N2C1=NC[C@H]2C#CC1(N(C)C)CC1` [Example 186, (R)-1-((1-(dimethylamino)cyclopropyl)ethynyl)-4-ethyl-N-(1-methylcyclopropyl)-5-oxo-1,2,4,5-tetrahydroimidazo[1,2-a]quinazoline-7-sulfonamide] was < 100 nM; that for `CCN1C(=O)c2cc(S(=O)(=O)NC3(C)CC3)ccc2N2C1=NC[C@H]2C#Cc1cnn(C)n1` [Example 187, (R)-4-ethyl-I-((2-methyl-2H-1,2,3-triazol-4-yl)ethynyl)-N-(1-methylcyclopropyl)-5-oxo-1,2,4,5-tetrahydroimidazo[1,2-a]quinazoline-7-sulfonamide] was < 100 nM; that for `CCN1C(=O)c2cc(S(=O)(=O)NC3(C)CC3)ccc2N2C1=NC[C@H]2C#CC1CC1` [Example 188, (R)-1-(cyclopropylethynyl)-4-ethyl-N-(1-methylcyclopropyl)-5-oxo-1,2,4,5-tetrahydroimidazo[1,2-a]quinazoline-7-sulfonamide] was < 100 nM. `CCN1C(=O)c2cc(S(=O)(=O)NC3(C)CC3)ccc2N2C1=NC[C@H]2C#Cc1cnc2cccnn12` [Example 189, (R)-4-ethyl-1-(imidazo[1,2-b]pyridazin-3-ylethynyl)-N-(1-methylcyclopropyl)-5-oxo-1,2,4,5-tetrahydroimidazo[1,2-a]quinazoline-7-sulfonamide]: the IC50 is < 100 nM. Regarding `CCN1C(=O)c2cc(S(=O)(=O)NC3(C)CC3)ccc2N2C1=NC[C@H]2C#Cc1cnn2cccnc12` [Example 190, (R)-4-ethyl-N-(1-methylcyclopropyl)-5-oxo-1-(pyrazolo[1,5-a]pyrimidin-3-ylethynyl)-1,2,4,5-tetrahydroimidazo[1,2-a]quinazoline-7-sulfonamide], the IC50 was < 100 nM. With `CCN1C(=O)c2cc(S(=O)(=O)NC3(C)CC3)ccc2N2C1=NC[C@H]2C#Cc1cnc2cc(CN(C)C)cnn12` [Example 191, (R)-1-((7-((dimethylamino)methyl)imidazo[1,2-b]pyridazin-3-yl)ethynyl)-4-ethyl-N-(1-methylcyclopropyl)-5-oxo-1,2,4,5-tetrahydroimidazo[1,2-a]quinazoline-7-sulfonamide] the figure was < 100 nM; with `Cc1cc(C#C[C@@H]2CN=C3N(Cc4cnn(C)c4)C(=O)c4cc(S(=O)(=O)NC5(C)CC5)ccc4N32)n(C)n1` [Example 192, (R)-1-((1,3-dimethyl-1H-pyrazol-5-yl)ethynyl)-4-((1-methyl-1H-pyrazol-4-yl)methyl)-N-(1-methylcyclopropyl)-5-oxo-1,2,4,5-tetrahydroimidazo[1,2-a]quinazoline-7-sulfonamide], < 100 nM; with `Cn1cc(CN2C(=O)c3cc(S(=O)(=O)NC4(C)CC4)ccc3N3C2=NC[C@H]3C#Cc2ccnn2C2CC2)cn1` [Example 193, (R)-1-((1-cyclopropyl-1H-pyrazol-5-yl)ethynyl)-4-((1-methyl-1H-pyrazol-4-yl)methyl)-N-(1-methylcyclopropyl)-5-oxo-1,2,4,5-tetrahydroimidazo[1,2-a]quinazoline-7-sulfonamide], < 100 nM. Regarding `Cc1cc(C#C[C@@H]2CN=C3N(Cc4cnn(C)c4)C(=O)c4cc(S(=O)(=O)NC5(C)CC5)ccc4N32)sn1` [Example 194, (R)-4-((1-methyl-1H-pyrazol-4-yl)methyl)-N-(1-methylcyclopropyl)-1-((3-methylisothiazol-5-yl)ethynyl)-5-oxo-1,2,4,5-tetrahydroimidazo[1,2-a]quinazoline-7-sulfonamide], the IC50 was < 100 nM. As to `CCN1C(=O)c2cc(S(=O)(=O)NC3(C)CC3)ccc2N2C1=NC[C@H]2C#Cc1cc(CN(C)C)nn1C` [Example 195, (R)-1-((3-((dimethylamino)methyl)-1-methyl-1H-pyrazol-5-yl)ethynyl)-4-ethyl-N-(1-methylcyclopropyl)-5-oxo-1,2,4,5-tetrahydroimidazo[1,2-a]quinazoline-7-sulfonamide], the IC50 is < 100 nM. Consider `Cn1cc(CN2C(=O)c3cc(S(=O)(=O)NC4(C)CC4)ccc3N3C2=NC[C@H]3C#Cc2ncnn2C)cn1` [Example 196, (R)-1-((1-methyl-1H-1,2,4-triazol-5-yl)ethynyl)-4-((1-methyl-1H-pyrazol-4-yl)methyl)-N-(1-methylcyclopropyl)-5-oxo-1,2,4,5-tetrahydroimidazo[1,2-a]quinazoline-7-sulfonamide], for which the IC50 was < 100 nM. In the case of `CCN1C(=O)c2cc(S(=O)(=O)NC3(C)CC3)ccc2N2C1=NC[C@H]2C#Cc1ccnn1C` [Example 198, (R)-4-ethyl-1-((1-methyl-1H-pyrazol-5-yl)ethynyl)-N-(1-methylcyclopropyl)-5-oxo-1,2,4,5-tetrahydroimidazo[1,2-a]quinazoline-7-sulfonamide], the IC50 was < 100 nM. The value for `CN1C(=O)c2cc(S(=O)(=O)NC3(C)CC3)ccc2N2C1=NC[C@H]2C#Cc1cnn(C)c(=O)c1` [Example 199, (R)-4-methyl-1-((1-methyl-6-oxo-1,6-dihydropyridazin-4-yl)ethynyl)-N-(1-methylcyclopropyl)-5-oxo-1,2,4,5-tetrahydroimidazo[1,2-a]quinazoline-7-sulfonamide] was < 100 nM; that for `CN1C(=O)c2cc(S(=O)(=O)NC3(C)CC3)ccc2N2C1=NCC2C#Cc1ccn(C)c(=O)c1` (stereo not shown) [Example 200, 4-methyl-1-((1-methyl-2-oxo-1,2-dihydropyridin-4-yl)ethynyl)-N-(1-methylcyclopropyl)-5-oxo-1,2,4,5-tetrahydroimidazo[1,2-a]quinazoline-7-sulfonamide] was 100 to 1000 nM. Take `CN1C(=O)c2cc(S(=O)(=O)NC3(C)CC3)ccc2N2C1=NC[C@H]2C#Cc1cnc2ccc(C(F)(F)F)nn12` [Example 201, (R)-4-methyl-N-(1-methylcyclopropyl)-5-oxo-1-((6-(trifluoromethyl)imidazo[1,2-b]pyridazin-3-yl)ethynyl)-1,2,4,5-tetrahydroimidazo[1,2-a]quinazoline-7-sulfonamide]: the IC50 was < 100 nM. With `CN1C(=O)c2cc(S(=O)(=O)NC3(C)CC3)ccc2N2C1=NCC2C#Cc1ccc(C#N)nc1` (stereo not shown) [Example 202, 1-((6-cyanopyridin-3-yl)ethynyl)-4-methyl-N-(1-methylcyclopropyl)-5-oxo-1,2,4,5-tetrahydroimidazo[1,2-a]quinazoline-7-sulfonamide] the figure was < 100 nM; with `Cc1ccc(C#CC2CN=C3N(C)C(=O)c4cc(S(=O)(=O)NC5(C)CC5)ccc4N32)cn1` (stereo not shown) [Example 203, 4-methyl-N-(1-methylcyclopropyl)-1-((6-methylpyridin-3-yl)ethynyl)-5-oxo-1,2,4,5-tetrahydroimidazo[1,2-a]quinazoline-7-sulfonamide], < 100 nM. In the case of `COc1ccc(C#CC2CN=C3N(C)C(=O)c4cc(S(=O)(=O)NC5(C)CC5)ccc4N32)cn1` (stereo not shown) [Example 204, 1-((6-methoxypyridin-3-yl)ethynyl)-4-methyl-N-(1-methylcyclopropyl)-5-oxo-1,2,4,5-tetrahydroimidazo[1,2-a]quinazoline-7-sulfonamide], the IC50 was < 100 nM. `CCN1C(=O)c2cc(S(=O)(=O)NC3(C)CC3)ccc2N2C1=NC[C@H]2C#Cc1cnn2c1OCC(NC)C2` (stereo partly drawn) [Example 205, (1R)-4-ethyl-1-((6-(methylamino)-6,7-dihydro-5H-pyrazolo[5,i-b][1,3]oxazin-3-yl)ethynyl)-N-(1-methylcyclopropyl)-5-oxo-1,2,4,5-tetrahydroimidazo[1,2-a]quinazoline-7-sulfonamide] showed an IC50 of 100 to 1000 nM. With `CCN1C(=O)c2cc(S(=O)(=O)NC3(C)CC3)ccc2N2C1=NC[C@H]2C#Cc1cnc2cc(C#N)cnn12` [Example 206, (R)-1-((7-cyanoimidazo[1,2-b]pyridazin-3-yl)ethynyl)-4-ethyl-N-(1-methylcyclopropyl)-5-oxo-1,2,4,5-tetrahydroimidazo[1,2-a]quinazoline-7-sulfonamide] the figure was < 100 nM.
